Experimental data: patent publication US20200261516A1, “Composition for Increasing Muscle Mass” (MORINAGA MILK INDUSTRY CO., LTD., priority 2017, published 2020)

Tested on: C57BL/6 mice
Assay: Mouse test: muscle wet weight (body weight ratio) and gastrocnemius histology after 4-week oral administration
Type: in vivo
Conditions: once a day for 4 weeks, n=7/group
Protocol: C57BL/6 mice (Charles River, Japan: healthy mice) were used as test animals to evaluate the effect of 4-week continuous ingestion of Bifidobacterium breve FERM BP-11175 on muscle mass increase.
After receiving the test animals at 9 weeks old, F-2 feed (manufactured by Funabashi Pharm) and tap water were freely ingested. After one week of acclimatization, the test animals were divided into 3 groups (n=7/group): a control group (administered 10 mL/kg body weight of tap water); a Bifidobacterium administration group (administered 10 mL/kg body weight of culture supernatant of Bifidobacterium breve FERM BP-11175 prepared in (1) of test example 1); and a leucine administration group (administered 1.5 g/kg body weight of leucine), and oral administration was continued for each mouse using an oral probe once a day for 4 weeks. After the final administration, the test animals were fasted for 3 hours, followed by treatment under sevoflurane anesthesia, and plantaris and gastrocnemius was removed to measure the wet weight (body weight ratio) of each tissue. For gastrocnemius, the thin-sectioned tissue was stained with HE, and then the tissue was observed under a microscope.

CC(C)C[C@H](N)C(=O)O [Leucine, leucine]
Gastrocnemius tissue weight (body weight ratio) [Mean value ± SE]: 5.417 ± 0.125 mg/g body weight | Plantaris tissue weight (body weight ratio) [Mean value ± SE]: 0.706 ± 0.027 mg/g body weight
